# Laboratory results reported in US20220185795A1, “COMPOUND FORM HAVING ENHANCED BIOAVAILABILITY AND FORMULATIONS THEREOF” (PTC THERAPEUTICS, INC., priority 2019, published 2022).
# Entries after “also recorded” stand apart in the source; their conditions may differ.
# Columns and labels:
# [1] = Storage stability study of SDD tablets; format: physicochemical; conditions: tablet form, a year at 40° C./75% relative humidity (RH)
# Excerpt: Granules were obtained through dry granulation, milling and mixing process. A dry granulation was obtained by sieving together a mixture of microcrystalline cellulose, lactose monohydrate, croscarmellose sodium, Poloxamer 407, colloidal silicon dioxide and the SDD, then adding magnesium stearate and mixing to obtain a first admixture. The density of the first admixture was increased by dry granulation to provide a first portion of granules. A second portion of magnesium stearate was sieved with a 30-mesh sieve, then combined with the first portion of granules and mixed in a V-blender for 2 minutes to obtain a second admixture. The second portion of granules were then obtained using a roller compactor and milled. The milled granules were added to the V-blender and mixed with the extragranular excipient's microcrystalline cellulose, lactose monohydrate and croscarmellose sodium. The extragranular excipients were sieved through a 30-mesh sieve, then added to the V-blender and mixed with the granules for 2 minutes to provide a third admixture. The third admixture was compressed into different tablet strengths using die that provided conforming tablet sizes.
# Active formulation tablets having the composition as described in Table 10 were tested for stability under different storage conditions.
# [2] = Polymorph stability studies; format: physicochemical; conditions: crystalline polymorphs
# Excerpt: (§1) The terms “Form A” and “Form B” refer to forms of Compound A that are purified anhydrous crystalline polymorph forms.
# [3] = Biopharmaceutics Classification System (BCS) class; conditions: stable crystalline form
# Excerpt: The Biopharmaceutics Classification System (BCS) is a system developed by the U.S. Food and Drug Administration (FDA) to differentiate forms of active pharmaceutical ingredients (API) based on their solubility and intestinal permeability, as follows: Class I: high solubility, high permeability; Class II: low solubility, high permeability; Class III: high solubility, low permeability, and Class IV: low solubility, low permeability. Formulating compositions of a BCS II-type API to enhance solubility and thus improve bioavailability can be a challenge.
# as §1
# [4] = Dynamic Vapor Sorption (DVS); format: physicochemical; conditions: at 95% RH
# [5] = Solubility in aqueous phosphate buffer and FaSSIF, pH 6.5; format: physicochemical
# [6] = pKa of aromatic amino group; format: physicochemical; conditions: weakly basic aromatic amino group
compound,measurement,setting,value
"Cc1nc2ccc(F)cc2n1-c1nc(N)c(F)c(Nc2ccc(C(F)(F)F)cc2)n1 [Compound A, 5-fluoro-2-(6-fluoro-2-methyl-1H-benzimidazol-1-yl)-N-[4-(trifluoromethyl)phenyl]pyrimidine-4,6-diamine]",chemical and physical stability (XRPD and mDSC),[1],both chemically and physically stable in tablet form and remained in an amorphous state
"Cc1nc2ccc(F)cc2n1-c1nc(N)c(F)c(Nc2ccc(C(F)(F)F)cc2)n1 [Form A, 5-fluoro-2-(6-fluoro-2-methyl-1H-benzimidazol-1-yl)-N-[4-(trifluoromethyl)phenyl]pyrimidine-4,6-diamine]",polymorph stability,[2],more stable than Form B; also recorded: most stable anhydrous crystalline form
same,BCS class,[3],BCS II substance
"Cc1nc2ccc(F)cc2n1-c1nc(N)c(F)c(Nc2ccc(C(F)(F)F)cc2)n1 [Form B, 5-fluoro-2-(6-fluoro-2-methyl-1H-benzimidazol-1-yl)-N-[4-(trifluoromethyl)phenyl]pyrimidine-4,6-diamine]",polymorph stability,[2],converts to Form A
"Cc1nc2ccc(F)cc2n1-c1nc(N)c(F)c(Nc2ccc(C(F)(F)F)cc2)n1 [Form I, 5-fluoro-2-(6-fluoro-2-methyl-1H-benzimidazol-1-yl)-N-[4-(trifluoromethyl)phenyl]pyrimidine-4,6-diamine]",water absorption,[4],approximately 1.3%
same,solubility,[5]; Fasted State Intestinal Fluid (FaSSIF) at pH 6.5,~18 µg/mL
same,solubility,[5]; aqueous phosphate buffer at pH 6.5,< 1 µg/mL
same,pKa,[6],< 3
